These results are taken from ChEMBL document CHEMBL1127664, “Second-generation benzodiazepine CCK-B antagonists. Development of subnanomolar analogs with selectivity and water solubility” (J Med Chem, 1994).

In data set [1] the target is T1, Cholecystokinin receptor type A (Rattus norvegicus, UniProt P30551).
T1 sequence (P30551 whole entry): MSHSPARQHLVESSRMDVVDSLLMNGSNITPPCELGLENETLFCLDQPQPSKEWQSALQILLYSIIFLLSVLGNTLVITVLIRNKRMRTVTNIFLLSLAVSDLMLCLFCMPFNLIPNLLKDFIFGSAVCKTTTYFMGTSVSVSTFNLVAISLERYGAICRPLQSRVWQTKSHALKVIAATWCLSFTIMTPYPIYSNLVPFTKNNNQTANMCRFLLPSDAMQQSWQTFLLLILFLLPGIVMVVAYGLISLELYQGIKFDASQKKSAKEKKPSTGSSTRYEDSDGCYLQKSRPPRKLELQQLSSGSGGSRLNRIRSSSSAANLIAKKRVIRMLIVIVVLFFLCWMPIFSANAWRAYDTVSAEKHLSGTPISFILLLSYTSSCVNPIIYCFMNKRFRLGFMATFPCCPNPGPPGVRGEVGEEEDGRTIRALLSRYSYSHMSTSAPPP
The experiment in a line: The compound was tested for binding activity against Cholecystokinin type A receptor from rat pancreatic tissue using [125]BH CCK-A as radioligand.

Data set [2] is described as follows: Equilibrium solubility determined after stirring the compound in buffered solution for more than 5 hours at pH 8.00. The format is ADME.
Data set [3] in a line: Equilibrium solubility determined after stirring the compound in buffered solution for more than 5 hours at pH 7. The format is ADME.
The target of data set [4] is T1, Cholecystokinin receptor type A. The experiment in a line: The compound was tested for binding activity against Cholecystokinin type A receptor from rat pancreas using [125]BH CCK-8s as radioligand.
Data set [5] in a line: Equilibrium solubility determined after stirring the compound in buffered solution for more than 5 hours at pH 7.4. The format is ADME.
The nature of data set [6]: Equilibrium solubility determined after stirring the compound in buffered solution for more than 5 hours at pH 8.0. The class given is ADME.

pIC50: −log10 of the molar value. Converted amounts (≈) assume the structure as drawn. A value given as a limit tells only on which side of the number the result lay.

In turn, `CC(C)CN1C(=O)[C@@H](NC(=O)Nc2ccc(-c3nn[nH]n3)cc2)N=C(c2ccccc2)c2ccccc21` gave a pIC50 in data set [1] of 5.84. For the same compound, the thermodynamic solubility at 5 h in data set [2] is greater than 11000 µg/mL; in data set [3] it was 1400 µg/mL (≈ 2.83 mM).

For the compound `CC(C)CN1C(=O)[C@H](NC(=O)Nc2ccc(-c3nnn[nH]3)cc2)N=C(c2ccccc2)c2ccccc21`, the negative-log IC50 (pIC50) in data set [4] was 6.42.

`Cc1ccc(NC(=O)N[C@H]2N=C(c3ccccc3)c3ccccc3N(C)C2=O)cc1` yielded a thermodynamic solubility at 5 h in data set [5] greater than 2 µg/mL. In data set [4], this compound showed a pIC50 of 6.13.

`CN1C(=O)[C@H](NC(=O)Nc2ccc(-c3nn[nH]n3)cc2)N=C(c2ccccc2)c2ccccc21` had a pIC50 in data set [4] of 8.21.

Turning to `CN1C(=O)[C@@H](NC(=O)Nc2ccc(-c3nnn[nH]3)cc2)N=C(c2ccccc2)c2ccccc21`, the pIC50 in data set [1] is 6.24. The compound further showed a solubility (thermodynamic) at 5 h in data set [5] of 3740 µg/mL (≈ 8.27 mM).

In data set [5], `CN1C(=O)C(NC(=O)Nc2ccc(C(=O)O)cc2)N=C(c2ccccc2)c2ccccc21` (single isomer, unassigned) showed a solubility (thermodynamic) at 5 h of 4700 µg/mL (≈ 11 mM). Moreover, the negative logarithm of the IC50 (pIC50) in data set [4] is 5.81.

Consider `CN1C(=O)[C@@H](NC(=O)Nc2ccc(-c3noc(O)n3)cc2)N=C(c2ccccc2)c2ccccc21`, for which the thermodynamic solubility at 5 h in data set [5] is 410 µg/mL (≈ 0.875 mM); in data set [6] it was 1660 µg/mL (≈ 3.54 mM). This compound also gave a pIC50 in data set [4] of 6.01.

Take `CN1C(=O)[C@H](NC(=O)Nc2ccc(-c3nc(=O)o[nH]3)cc2)N=C(c2ccccc2)c2ccccc21`: the negative logarithm of the IC50 (pIC50) in data set [4] is 7.81.
